Experimental data: ChEMBL document CHEMBL5113394, “Design and synthesis of harmiquins, harmine and chloroquine hybrids as potent antiplasmodial agents” (Eur J Med Chem, 2022)

Columns and labels:
Plasmodium falciparum [1] = experiment: Antiplasmodial activity against multidrug-resistant Plasmodium falciparum Dd2 assessed as inhibition of parasite growth incubated for 3 days by HRP2-ELISA; type: functional, organism-based; conditions: Dd2, 72 h
[2] = Cytotoxicity against human HepG2 cells assessed as cell growth inhibition incubated for 1 day by neutral red assay; type: toxicity, cell-based
Plasmodium falciparum [3] = experiment: Antiplasmodial activity against chloroquine-sensitive Plasmodium falciparum 3D7 assessed as inhibition of parasite growth incubated for 3 days by HRP2-ELISA; type: functional, organism-based; conditions: 3D7, 72 h
[4] = Resistance index, ratio of IC50 for antiplasmodial activity against multidrug-resistant Plasmodium falciparum Dd2 to IC50 for antiplasmodial activity against chloroquine-sensitive Plasmodium falciparum 3D7; type: functional
[5] = Selectivity index, ratio of IC50 for cytotoxicity against human HepG2 cells to IC50 for antiplasmodial activity against chloroquine-sensitive Plasmodium falciparum 3D7; type: toxicity, cell-based; conditions: read-out: Ratio IC50
[6] = Inhibition of hemin (unknown origin) assessed as inhibition of heme polymerization by measuring reduction in beta-hematin formation at 1 mM measured after 48 hrs by microplate reader assay
Plasmodium falciparum [7] = experiment: Potency index, ratio of chloroquine IC50 to test compound IC50 for antiplasmodial activity against chloroquine-sensitive Plasmodium falciparum 3D7 assessed as inhibition of parasite growth incubated for 3 days by HRP2-ELISA; type: functional; conditions: time 3 day
Plasmodium falciparum [8] = experiment: Potency index, ratio of chloroquine IC50 to test compound IC50 for antiplasmodial activity against multidrug-resistant Plasmodium falciparum K1 assessed as inhibition of parasite growth incubated for 3 days by HRP2-ELISA; type: functional; conditions: time 3 day
Plasmodium falciparum [9] = experiment: Antiplasmodial activity against chloroquine-resistant Plasmodium falciparum 7G8 assessed as inhibition of parasite growth incubated for 3 days by HRP2-ELISA; type: functional, organism-based; conditions: 7G8, 72 h
Plasmodium falciparum [10] = experiment: Potency index, ratio of chloroquine IC50 to test compound IC50 for antiplasmodial activity against chloroquine-resistant Plasmodium falciparum 7G8 assessed as inhibition of parasite growth incubated for 3 days by HRP2-ELISA; type: functional; conditions: time 3 day
Plasmodium falciparum [11] = experiment: Potency index, ratio of chloroquine IC50 to test compound IC50 for antiplasmodial activity against multidrug-resistant Plasmodium falciparum Dd2 assessed as inhibition of parasite growth incubated for 3 days by HRP2-ELISA; type: functional; conditions: time 3 day
Plasmodium falciparum [12] = experiment: Antiplasmodial activity against multidrug-resistant Plasmodium falciparum K1 assessed as inhibition of parasite growth incubated for 3 days by HRP2-ELISA; type: functional, organism-based; conditions: K1, 72 h
[13] = Resistance index, ratio of IC50 for antiplasmodial activity against multidrug-resistant Plasmodium falciparum K1 to IC50 for antiplasmodial activity against chloroquine-sensitive Plasmodium falciparum 3D7; type: functional
[14] = Resistance index, ratio of IC50 for antiplasmodial activity against chloroquine-resistant Plasmodium falciparum 7G8 to IC50 for antiplasmodial activity against chloroquine-sensitive Plasmodium falciparum 3D7; type: functional

| Compound | IC50 (Plasmodium falciparum [1]) [nM] | IC50 at 1 day [2] [nM] | IC50 (Plasmodium falciparum [3]) [nM] | Ratio IC50 [4] | selectivity ratio [5] | inhibition [6] [%] | Ratio IC50 (Plasmodium falciparum [7]) | Ratio IC50 (Plasmodium falciparum [8]) | IC50 (Plasmodium falciparum [9]) [nM] | Ratio IC50 (Plasmodium falciparum [10]) | Ratio IC50 (Plasmodium falciparum [11]) | IC50 (Plasmodium falciparum [12]) [nM] | Ratio IC50 [13] | Ratio IC50 [14] |
| --- | --- | --- | --- | --- | --- | --- | --- | --- | --- | --- | --- | --- | --- | --- |
| COc1ccc2c3ccnc(C)c3n(Cc3cn(-c4ccnc5cc(Cl)ccc45)nn3)c2c1 | 1820 | 19700 | 899 | 2 | 21.9 | < 50 | – | – | – | – | – | – | – | – |
| COc1ccc2c3ccnc(C)c3n(CCC(=O)NCCCCNc3ccnc4cc(Cl)ccc34)c2c1 | – | > 25000 | – | – | > 723 | < 50 | – | – | – | – | – | – | – | – |
| COc1ccc2c3ccnc(C)c3n(CCC(=O)NCCNc3ccnc4cc(Cl)ccc34)c2c1 | – | 12800 | – | – | 795 | < 50 | – | – | – | – | – | – | – | – |
| COc1ccc2c3ccnc(C)c3n(CCNC(=O)CNc3ccnc4cc(Cl)ccc34)c2c1 | 16.2 | 8900 | 2 | – | 4450 | 50 | 5.5 | 15.9 | 7.4 | 29.8 | 22.5 | 24.8 | – | – |
| COc1ccc2c(c1)[nH]c1c(C)nccc12 [HARMINE] | – | > 250000 | – | – | – | – | – | – | – | – | – | – | – | – |
| Cc1nccc2c1[nH]c1ccc(OCc3cn(-c4ccnc5cc(Cl)ccc45)nn3)cc12 | 7110 | 5500 | 3660 | 1.9 | 1.5 | > 75 | – | – | – | – | – | – | – | – |
| Cc1nccc2c1[nH]c1ccc(OCc3cn(CCNc4ccnc5cc(Cl)ccc45)nn3)cc12 | 160 | 15000 | 65.7 | 2.4 | 228 | > 75 | – | – | 144 | – | – | 141 | 2.1 | 2.1 |
| O=C(CNc1ccnc2cc(Cl)ccc12)NCc1nccc2c1[nH]c1ccccc12 | 171 | 7800 | 54 | 3.1 | 144 | < 50 | – | – | – | – | – | – | – | – |
| Cc1nc(CNC(=O)CNc2ccnc3cc(Cl)ccc23)cc2c1[nH]c1ccccc12 | 46.1 | 18600 | 13 | 3.5 | 1430 | < 50 | – | – | 28.2 | – | – | 48.8 | 3.7 | 2.1 |
| Cc1nccc2c1[nH]c1ccc(OCCNC(=O)CNc3ccnc4cc(Cl)ccc34)cc12 | 535 | > 20000 | 303 | 1.7 | > 66 | < 50 | – | – | – | – | – | – | – | – |
| Cc1nccc2c1[nH]c1cc(OCc3cn(CCNc4ccnc5cc(Cl)ccc45)nn3)ccc12 | 76.2 | 6300 | 57.3 | 1.3 | 110 | > 75 | – | – | 44.2 | – | – | 33.5 | 0.5 | 0.7 |
| Cc1nccc2c1[nH]c1cc(OCc3cn(-c4ccnc5cc(Cl)ccc45)nn3)ccc12 | 203 | 6400 | 95.8 | 2.1 | 66.8 | > 75 | – | – | 195 | – | – | 299 | 3.1 | 2 |
| Cc1nccc2c1[nH]c1cc(OCCNC(=O)CNc3ccnc4cc(Cl)ccc34)ccc12 | 309 | 15900 | 234 | 1.3 | 68.1 | 50 | – | – | – | – | – | – | – | – |
| CCN(CC)CCCC(C)Nc1ccnc2cc(Cl)ccc12 (configuration not stated) | – | – | – | – | – | > 75 | – | – | – | – | – | – | – | – |
| Cc1nc(Cn2cc(COc3ccnc4cc(Cl)ccc34)nn2)cc2c1[nH]c1ccccc12 | 5420 | > 100000 | 10800 | 0.4 | > 9.22 | 50 | – | – | – | – | – | – | – | – |
| Clc1ccc2c(OCc3cn(Cc4nccc5c4[nH]c4ccccc45)nn3)ccnc2c1 | > 27800 | > 25000 | > 28000 | – | > 0.9 | < 50 | – | – | – | – | – | – | – | – |
| COc1ccc2c3ccnc(C)c3n(Cc3cn(CCNc4ccnc5cc(Cl)ccc45)nn3)c2c1 | 204 | 14000 | 11.6 | – | 829 | 50 | – | – | 28.6 | – | – | 163 | – | – |
